Counter-ions that a name gives are not always drawn. Like-named read-outs stand apart in the source and are kept apart here.

1 compound from publication PMC10388327, “Dual Piperidine-Based Histamine H3 and Sigma-1 Receptor Ligands in the Treatment of Nociceptive and Neuropathic Pain” (Journal of Medicinal Chemistry, 2023) can be followed below.

The subject of the experiment is mice. In words: formalin test. The experiment is classed as in vivo. As to conditions: Mus musculus, ip. An excerpt: The formalin test is one of the most useful screening models for testing potentially clinically relevant antinociceptive molecules because of its ease of administration, standardization, and validation with reference drugs.[50] The subcutaneous injection of formalin results in a focal injury that stimulates and then damages sensory endings. Two distinct phases of nociceptive response are associated with the immediate activation of nociceptors and sensitization of spinal reflex circuits during phase I and II responses, respectively.[51]
The procedure used was essentially the same as that described previously.[86],[87] Briefly, 20 μL of 1.5% formalin solution was injected intraplantarly (i.pl.) into the mice right hind paw using a 26-gauge needle. […] The total time (in seconds) spent on licking the injected paw during periods of 0–5 min (early phase, neurogenic) and 15–30 min (late phase, inflammatory) was measured and was considered as an indicator of nociceptive behavior. Before formalin injection, different groups of mice were treated i.p. with the vehicle (10 mL/kg, negative control) and the varying doses of 12 (5, 10, 15, and 30 mg/kg).

In the case of `N#Cc1ccc(-c2ccc(OCCCN3CCC(c4ccncc4)CC3)cc2)cc1` [Compound 12, 4′-(3-(4-(Pyridin-4-yl)piperidin-1-yl)propoxy)-[1,1′-biphenyl]-4-carbonitrile Oxalate], the median effective dose (ED50) is 6.17 mg/kg (0–5 min after formalin, read-out: ED50, formalin test phase I (acute phase)) and 12.3 mg/kg (15–30 min after formalin, read-out: ED50, formalin test phase II (late phase)).
